Assay results published in patent US20240425478A1, “CYCLOPENTYLPYRAZOLE CDK2 INHIBITORS” (Genentech, Inc., priority 2021, published 2024).
Like-named read-outs stand apart in the source and are kept apart here.

Experiments:
HCT116 cells = assay: p-H3 HCT-116 mitotic release cell proliferation assay (cellular CDK1); format: cell-based; conditions: Homo sapiens, HCT-116; Table O, cellular assay; read-out: CDK1 p-H3 IC50
Procedure: Inhibition of cellular CDK1 determined by release of cells from nocodazole-induced mitotic arrest, as measured by decrease in phospho-Histone H3. Histone H3 (Ser 10) level is detected in cell lysates by producing a Fluorescence Resonance Energy Transfer (FRET) signal between two antibodies, Phospho-Histone H3 Cryptate (acting as the donor) and Phospho-Histone H3 d2 (acting as the acceptor).
Plates are allowed to rest overnight at 37° C./5% CO2. The following morning, nocodazole is diluted in complete medium, and 5 μL is added to each test well and positive control well for a final concentration of 500 nM. Plates are then incubated for 16 hours at 37° C./5% CO2. […] 10 μL of diluted compound is then transferred to the cell plate (final DMSO concentration 0.1%). Cell plates are then incubated for 4 hours in 37° C. 5% CO2. A cell lysis buffer is prepared on ice using reagents from the Phospho-Histone H3 (Ser10) cellular kit (Cisbio-64HH3PEG). Supernatant is discarded from the cell plate and 80 μL of the supplemented cell lysis buffer (1:99 dilution of the Blocking Reagent and the 1× cell lysis buffer provided in the kit) is added to each of the experimental wells. The cell lysis reaction is allowed to proceed at room temperature while shaking vigorously for 30 minutes. The 384-well HTRF (Homogeneous Time Resolved Fluorescence) plate is prepared by adding 2 μL of each diluted antibody (Phospho-Histone H3 Cryptate antibody and Phospho-Histone H3 d2 antibody diluted 19:1 in a detection buffer) and 12 μL of the supplemented cell lysis buffer to each well in the HTRF plate. 4 μL of the cell lysate is added to the prepared HTRF plate which is then sealed and the reaction is allowed to proceed for a minimum of 2 hours at room temperature.

[1] = test system: OVISE (JCRB1043, CCNE1-amplified); assay: OVISE EdU incorporation cell proliferation assay (CDK2-dependent); format: cell-based; conditions: for IC50 / FS SKOV-3/OVISE / FS p-H3/OVISE: Table O; for IC50: cellular assay, read-out: CDK2 OVISE IC50; for FS SKOV-3/OVISE / FS p-H3/OVISE: fold selectivity; for FS SKOV-3/OVISE: cellular SKOV-3 IC50 over OVISE IC50; for FS p-H3/OVISE: cellular p-H3 IC50 over OVISE IC50
How it was run: (§1)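 EdU incorporation (0.5 μM final, last 8 h) follows a 16 h compound exposure at 37 °C, 5% CO2 in RPMI plus 10% FBS, 0.5% DMSO. After fixation, imaging scores EdU-positive cells; a 4-parameter logistic fit of that fraction gives IC50.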

[2] = target: T1, Cyclin Dependent Kinase 2/Cyclin E1 (CDK2-cycE1) (Homo sapiens, UniProt P24941); assay: CDK2-cycE1 TR-FRET (LANCE) enzyme assay; format: biochemical; conditions: for Ki: enzymatic assay, read-out: CDK2 Ki; for FS CDK1/CDK2 / FS CDK4/CDK2: fold selectivity; for FS CDK1/CDK2: enzymatic CDK1 Ki over CDK2 Ki; for FS CDK4/CDK2: enzymatic CDK4 Ki over CDK2 Ki
T1 construct: purchased ProQinase 0050-0055-1
How it was run: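 Kinase reaction buffer: 50 mM HEPES pH 7.5, 10 mM MgCl2, 2 mM TCEP, 0.05% BGG, 0.01% Brij 35, with 30 min compound–enzyme pre-incubation.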

[3] = target: T2, Cyclin Dependent Kinase 1/Cyclin A2 (CDK1-cycA2) (Homo sapiens, UniProt P06493); assay: CDK1-cycA2 TR-FRET (Lance) enzyme assay; format: biochemical; conditions: for Ki: Table O, enzymatic assay; for FS CDK1/CDK2: fold selectivity, enzymatic Ki ratio
T2 construct: purchased ProQinase 0134-0054-1
T2 sequence (P06493 whole entry): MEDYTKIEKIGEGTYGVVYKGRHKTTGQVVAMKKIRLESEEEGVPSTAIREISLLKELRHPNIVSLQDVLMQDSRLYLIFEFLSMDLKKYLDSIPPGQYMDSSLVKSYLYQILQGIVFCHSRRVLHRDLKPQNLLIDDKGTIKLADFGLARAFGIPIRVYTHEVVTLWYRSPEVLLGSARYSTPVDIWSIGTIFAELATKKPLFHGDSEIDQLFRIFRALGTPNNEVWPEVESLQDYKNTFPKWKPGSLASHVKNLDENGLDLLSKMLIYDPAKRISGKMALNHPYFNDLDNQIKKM
T2 sequence (P20248 whole entry partner): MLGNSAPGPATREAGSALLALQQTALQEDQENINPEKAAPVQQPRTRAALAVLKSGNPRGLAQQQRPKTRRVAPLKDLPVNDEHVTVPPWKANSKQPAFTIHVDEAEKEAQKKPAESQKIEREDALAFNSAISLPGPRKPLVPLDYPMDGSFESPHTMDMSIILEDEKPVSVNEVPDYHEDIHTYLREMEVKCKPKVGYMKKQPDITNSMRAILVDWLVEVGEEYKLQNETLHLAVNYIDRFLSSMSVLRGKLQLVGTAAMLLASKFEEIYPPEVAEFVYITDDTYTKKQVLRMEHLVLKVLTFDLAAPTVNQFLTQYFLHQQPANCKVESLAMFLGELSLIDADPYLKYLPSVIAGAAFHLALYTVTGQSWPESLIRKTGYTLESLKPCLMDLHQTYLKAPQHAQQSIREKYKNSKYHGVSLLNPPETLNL
How it was run: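 TR-FRET (Lance) detection of phospho-4E-BP1 with a europium-labelled antibody after EDTA quench (15 mM final); signal taken as acceptor/donor ratio. Enzyme and compound were pre-incubated 30 min in HEPES pH 7.5 buffer with MgCl2, TCEP, BGG and Brij 35. Ki derived by Morrison fit.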

SKOV-3 (ATCC HTB-77) = assay: SKOV-3 EdU incorporation cell proliferation assay (CDK4/6-dependent); format: cell-based; conditions: for IC50: Homo sapiens, SK-OV-3, Table O, cellular assay, read-out: CDK4/6 SKOV-3 IC50; for FS SKOV-3/OVISE: fold selectivity, cellular IC50 ratio
How it was run: as §1

[4] = target: T3, Cyclin Dependent Kinase 4/Cyclin D3 (CDK4-cycD3) (Homo sapiens, UniProt P11802); assay: CDK4-cycD3 TR-FRET (LANCE) enzyme assay; format: biochemical; conditions: for Ki: Table O, enzymatic assay; for FS CDK4/CDK2: fold selectivity, enzymatic Ki ratio
T3 construct: purchased Carna Biosciences 04-105
T3 sequence (P11802 whole entry): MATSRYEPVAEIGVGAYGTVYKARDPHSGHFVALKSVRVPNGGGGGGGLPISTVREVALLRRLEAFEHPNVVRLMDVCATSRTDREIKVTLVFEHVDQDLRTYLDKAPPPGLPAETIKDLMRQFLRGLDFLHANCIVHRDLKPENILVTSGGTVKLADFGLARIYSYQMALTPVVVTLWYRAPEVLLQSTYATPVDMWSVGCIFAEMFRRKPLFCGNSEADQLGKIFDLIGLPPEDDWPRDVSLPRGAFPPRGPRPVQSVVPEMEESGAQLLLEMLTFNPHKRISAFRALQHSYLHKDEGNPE
T3 sequence (P30281 whole entry partner): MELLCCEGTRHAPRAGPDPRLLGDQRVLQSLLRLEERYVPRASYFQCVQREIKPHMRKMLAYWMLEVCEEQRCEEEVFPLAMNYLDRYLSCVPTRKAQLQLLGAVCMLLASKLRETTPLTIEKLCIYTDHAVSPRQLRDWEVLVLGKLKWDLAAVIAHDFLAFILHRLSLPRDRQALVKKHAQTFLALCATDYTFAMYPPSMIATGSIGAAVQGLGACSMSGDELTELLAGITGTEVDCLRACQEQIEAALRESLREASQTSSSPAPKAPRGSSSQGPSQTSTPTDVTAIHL
How it was run: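 Compound dose responses pre-incubated 30 min with enzyme mix in 50 mM HEPES pH 7.5, 10 mM MgCl2, 2 mM TCEP, 0.05% BGG, 0.01% Brij 35. Reaction quenched with EDTA (15 mM final); Eu-anti-phospho-4E-BP1 TR-FRET detection, acceptor/donor ratio. Ki derived by Morrison equation.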

Row | IC50 (HCT116 cells) [nM] | Ki ([2]; Table O) [nM] | FS CDK1/CDK2 ([2]; Table O) | FS CDK4/CDK2 ([2]; Table O) | Ki [3] [nM] | IC50 (SKOV-3 (ATCC HTB-77)) [nM] | Ki [4] [nM] | Compound | IC50 [1] [nM] | FS SKOV-3/OVISE [1] | FS p-H3/OVISE [1] | also measured
1 | 230 | 0.63 | 132 | 444 | 83 | 12000 | 280 | Cc1nnccc1Nc1cc([C@H]2CC[C@@H](OC(=O)NC(C)(C)C)C2)[nH]n1 [Example 11A, (1R,3S)-3-(3-((3-methylpyridazin-4-yl)amino)-1H-pyrazol-5-yl)cyclopentyl tert-butylcarbamate] | 120 | 100 | 1.9 | 
2 | 220 | 2.1 | 33 | 90 | 69 | 1000 | 190 | CNC(=O)c1cnc(Nc2cc([C@H]3CC[C@@H](OC(=O)NC45CC(C4)C5)C3)[nH]n2)c(C)n1 [Example 9E, (1R,3S)-3-(3-((3-methyl-5-(methylcarbamoyl)pyrazin-2-yl)amino)-1H-pyrazol-5-yl)cyclopentyl bicyclo[1.1.1]pentan-1-ylcarbamate] | 200 | 5 | 1.0 | 

Row | Compound | IC50 (HCT116 cells) [nM] | Ki ([2]; Table O) [nM] | FS CDK1/CDK2 ([2]; Table O) | FS CDK4/CDK2 ([2]; Table O) | Ki [3] [nM] | IC50 (SKOV-3 (ATCC HTB-77)) [nM] | Ki [4] [nM] | IC50 [1] [nM] | FS SKOV-3/OVISE [1] | FS p-H3/OVISE [1] | also measured
3 | Cc1ccncc1Nc1cc([C@H]2CC[C@@H](OC(=O)NC(C)(C)C)C2)[nH]n1 [Example 4A, (1R,3S)-3-(3-((4-methylpyridin-3-yl)amino)-1H-pyrazol-5-yl)cyclopentyl tert-butylcarbamate] | 93 | 2.6 | 78 | 170 | 210 | 9900 | 410 | 180 | 71 | 0.72 | CDK2 OVISE IC50 fold change in potency versus Comparator D ([1]; Table R, in brackets after OVISE IC50): 21 fold; CDK2 OVISE IC50 fold change in potency versus Comparator E ([1]; Table S, in brackets after OVISE IC50): 0.9 fold; Ki ([2]; Table R): 2.6 nM; CDK2 Ki fold change in potency versus Comparator D ([2]; Table R, in brackets after CDK2 Ki): 1 fold; Ki ([2]; Table S): 2.6 nM; CDK2 Ki fold change in potency versus Comparator E ([2]; Table S, in brackets after CDK2 Ki): 0.2 fold; FS CDK1/CDK2 increased over Comparator D, (+) sign ([3]; Table R): (+); FS CDK1/CDK2 ([3]; Table R): 78; FS CDK1/CDK2 increased over Comparator E, (+) sign ([3]; Table S): (+); FS CDK1/CDK2 ([3]; Table S): 78; selectivity for CDK2 over CDK4 compared with Comparator E (SKOV-3 (ATCC HTB-77); SKOV-3/OVISE fold-selectivity cellular assay data): increase in selectivity for CDK2 over CDK4; FS SKOV-3/OVISE increased over Comparator D, (+) sign (SKOV-3 (ATCC HTB-77); Table R): (+); FS SKOV-3/OVISE (SKOV-3 (ATCC HTB-77); Table R): 71; FS SKOV-3/OVISE increased over Comparator E, (+) sign (SKOV-3 (ATCC HTB-77); Table S): (+); FS SKOV-3/OVISE (SKOV-3 (ATCC HTB-77); Table S): 71; FS CDK4/CDK2 increased over Comparator D, (+) sign ([4]; Table R): (+); FS CDK4/CDK2 ([4]; Table R): 170; FS CDK4/CDK2 increased over Comparator E, (+) sign ([4]; Table S): (+); FS CDK4/CDK2 ([4]; Table S): 170
